Data from US20220040255A1, “CHEMOTHERAPEUTIC REMODELING OF THE GUT MICROBIOME” (THE SCRIPPS RESEARCH INSTITUTE, priority 2018, published 2022).
Where a SMILES comes first, the peptide text is derived from it. [ ]: non-standard residue; d: D form.

Experiments:
bile acids = bile acids in feces and plasma by targeted metabolomics; type: in vivo; conditions: WD-fed LDLr−/− mice, 2-wk treatment
Description: Measurement of secondary bile acids. Feces were obtained between 0900-1100 am from non-fasted animals after a 2-wk treatment period. Bile acids were extracted from samples according to published procedures (Wegner et al., Anal. Bioanal. Chem. 409, 1231-1245, 2017). Briefly, fecal samples were lyophilized and homogenized. Five milligrams of fecal powder were extracted with 250 μl of methanol containing heavy internal standards. Fifty microliters of plasma were extracted with 150 μL of methanol containing heavy internal standards. After vortexing for 10 minutes and centrifuging (16,000×g, 4 C, 10 min), supernatants were transferred to glass vials for injection and analysis by LCMS. Bile acids were analyzed on a Dionex Ultimate 3000 LC system (Thermo) coupled to a TSQ Quantiva mass spectrometer (Thermo) fitted with a Kinetex C18 reversed phase column (2.6 μm, 150×2.1 mm i.d., Phenomenex). The following LC solvents were used: solution A, 0.1% formic acid and 20 mM ammonium acetate in water, solution B, acetonitrile/methanol (3/1, v/v) containing 0.1% formic acid and 20 mM ammonium acetate. The following reversed phase gradient was utilized: at a flow rate of 0.2 mL/min with a gradient consisting of 25-29% B in 1 min, 29-33% B in 14 min, 33-70% B in 15 min, up to 100% B in 1 min, 100% B for 9 min and re-equilibrated to 25% B for 10 min, for a total run time of 50 min. The injection volume for all samples was 10 μL, the column oven temperature was set to 50° C. and the autosampler kept at 4° C. MS analyses were performed using electrospray ionization in positive and negative ion modes, with spray voltages of 3.5 and −3 kV, respectively, ion transfer tube temperature of 325° C., and vaporizer temperature of 275° C. Multiple reaction monitoring (MRM) was performed by using mass transitions between specific parent ions into corresponding fragment ions for each analyte.

[1] = tested on: cytokines/chemokines in liver tissue; assay: cytokines/chemokines in liver tissue by Luminex assay; type: in vivo, LDLr−/− mice
Excerpt: Interleukin-1β (IL-1β) is a proinflammatory cytokine central to the inflammatory response […] the interlukin-6 (IL-6) signaling pathway. […] In addition to IL-1β, a pathogenic role of IL-la in vascular inflammation and atherosclerosis has been described.

total bile acid = assay: bulk (total) bile acid quantification; type: in vivo, LDLr−/− mice; conditions: 2-wk treatment
Description: Bulk bile acid quantification. Total bile acids were measured enzymatically using a total bile acid assay kit (Cell Biolabs) following manufacturer's instruction. Feces were obtained between 0900-1100 am from non-fasted animals after a 2-wk treatment period. The extraction of bile acid from feces was performed as described in Yu et al., J. Biol. Chem. 275, 15482-15489, 2000. In brief, the feces from individual mice were collected, weighed, and agitated in 75% ethanol in an ultrasonic bath at 50° C. for 2 h. After centrifugation at 3,500 g for 10 min, the supernatant was transferred to a new tube and diluted with 25% PBS. The total bile acid level was then determined enzymatically using the kit. For plasma samples, the plasma was diluted 1:10 with 25% PBS prior to enzymatic bile acid measurement using the kit.

[2] = tested on: mouse liver and ileum gene expression; assay: host gene expression (mouse RNA-seq, qPCR); type: in vivo, mice; conditions: peptide-treated WD animals
Description: Mouse RNA-seq sample preparation and sequencing. Mouse tissues were harvested after 2 weeks of treatment, stored in RNAlater, and snap-frozen. 20-30 mg of mouse tissue was used for RNA extraction with RNeasy Mini Kit (Qiagen) following the manufacturer's instructions. Ribosomal RNA was removed from total RNA with Ribo-Zero Gold rRNA removal kit (Illumina). Strand-specific RNA-seq libraries were constructed as described previously (Hainer et al., Genes Dev. 29, 362-378, 2015). Libraries with different barcodes were pooled and single-end sequencing (75 bp) was performed on an Illumina NextSeq at the Scripps Research Institute next generation sequencing core.
Mouse RNA sequencing data analysis. After ribosomal RNA sequences were removed, the RNA transcripts were quantified using RSEM. […] Enrichment of Gene Ontology terms and categories was performed with DAVID 6.8.
Quantitative real-time PCR. To validate selected gene expression results, qPCR reactions were carried out. Mouse livers were harvested two weeks after peptide treatment and total RNA was extracted using RNeasy Mini (Qiagen) following manufacturer's instructions. […]

[3] = liver tissue, WD-fed LDLr−/− mice, 4 weeks of treatment

## CC(C)C[C@@H]1NC(=O)[C@@H](Cc2c[nH]c3ccccc23)NC(=O)[C@H](CCCNC(=N)N)NC(=O)[C@@H](CCC(=O)O)NC(=O)[C@H](CCC(N)=O)NC(=O)[C@@H](CCC(=O)O)NC(=O)[C@H](CCCNC(=N)N)NC(=O)[C@@H](Cc2c[nH]c3ccccc23)NC1=O [c[wLwReQeR]] (cyclo([dW]L[dW]R[dE]Q[dE]R))
Bile acids; feces
  CA level: 440 ± 490 pmol/mg feces
  DCA level: 4900 ± 2400 pmol/mg feces
  HCA level: 1.6 ± 1.1 pmol/mg feces
  LCA level: 400 ± 170 pmol/mg feces
  T-CA level: 8.3 ± 3.3 pmol/mg feces
  T-DCA level: 2.6 ± 1.2 pmol/mg feces
  T-HCA level: 0.097 ± 0.03 pmol/mg feces
  T-α-MCA level: 17 ± 8.7 pmol/mg feces
  T-β-MCA level: 20 ± 11 pmol/mg feces
  T-ω-MCA level: 3 ± 1.4 pmol/mg feces
  UDCA level: 43 ± 16 pmol/mg feces
  α-MCA level: 21 ± 8.9 pmol/mg feces
  β-MCA level: 65 ± 12 pmol/mg feces
  ω-MCA level: 170 ± 100 pmol/mg feces
Bile acids; plasma
  CA level: 6300 ± 8300 pmol/mL plasma
  DCA level: 2100 ± 2100 pmol/mL plasma
  HCA level: 1.0 ± 0.84 pmol/mL plasma
  LCA level: 100 ± 48 pmol/mL plasma
  T-CA level: 16000 ± 31000 pmol/mL plasma
  T-DCA level: 830 ± 1100 pmol/mL plasma
  T-HCA level: 62 ± 110 pmol/mL plasma
  T-α-MCA level: 1900 ± 3900 pmol/mL plasma
  T-β-MCA level: 9800 ± 22000 pmol/mL plasma
  T-ω-MCA level: 2400 ± 4900 pmol/mL plasma
  UDCA level: 120 ± 92 pmol/mL plasma
  α-MCA level: 10 ± 5.8 pmol/mL plasma
  β-MCA level: 76 ± 75 pmol/mL plasma
  ω-MCA level: 33 ± 11 pmol/mL plasma
[1]; liver tissue from WD animals, treated vs vehicle
  several cytokine and chemokine levels, including IL-1β, IL-1α, IL-6, and TNF-α: significant reductions
[1]; [3]
  CCL2 (MCP-1) level: 470 ± 150 pg/g tissue
  CCL3 (MIP-1a) level: 200 ± 130 pg/g tissue
  CCL4 (MIP-1b) level: 3000 ± 1800 pg/g tissue
  CXCL10 (IP-10) level: 1200 ± 380 pg/g tissue
  Eotaxin level: 1200 ± 390 pg/g tissue
  G-CSF level: 380 ± 150 pg/g tissue
  GM-CSF level: 86 ± 37 pg/g tissue
  IFNg level: 37 ± 16 pg/g tissue
  IL1a level: 1100 ± 190 pg/g tissue
  IL1b level: 430 ± 100 pg/g tissue
  IL2 level: 80 ± 24 pg/g tissue
  IL3 level: 31 ± 15 pg/g tissue
  IL4 level: 13 ± 8.4 pg/g tissue
  IL6 level: 260 ± 55 pg/g tissue
  IL7 level: 230 ± 110 pg/g tissue
  IL9 level: 670 ± 160 pg/g tissue
  IL10 level: 160 ± 58 pg/g tissue
  IL13 level: 7.3 ± 5.9 pg/g tissue
  IL-12p40 level: 200 ± 78 pg/g tissue
  IL-12p70 level: 270 ± 140 pg/g tissue
  IL-15 level: 960 ± 370 pg/g tissue
  IL-17 level: 55 ± 16 pg/g tissue
  KC level: 190 ± 20 pg/g tissue
  LIF level: 7.1 ± 4 pg/g tissue
  LIX level: 290 ± 240 pg/g tissue
  M-CSF level: 200 ± 70 pg/g tissue
  MIG level: 1200 ± 650 pg/g tissue
  RANTES level: 71 ± 61 pg/g tissue
  TNFa level: 77 ± 21 pg/g tissue
  VEGF level: 8.2 ± 3.4 pg/g tissue
Total bile acid; feces
  total bile acid in the feces, peptide-treated vs. control WD-fed mice: two-fold higher
Total bile acid; plasma
  total bile acid in the plasma, peptide-treated vs. control WD-fed mice: three-fold lower
[2]
  expression of cholesterol 7 alpha-hydroxylase (Cyp7a1): significantly increased
